Source: patent US20080199606A1, “Composition for the Impregnation of Fibers, Fabrics and Nettings Imparting a Protective Activity Against Pests” (BASF Aktiengesellschaft, priority 2005, published 2008)

Tested on: mosquitoes
Experiment: WHO cone test of treated, washed polyester nettings (knockdown, 24-hour mortality)
Type: in vivo
Settings: polyester nettings treated with insecticide composition comprising a binder of example A and the N-arylhydrazine derivative; after Montpellier washing; 3 min cone exposure
Procedure: The long-lasting insecticidal treatment was performed with aqueous dispersions according to examples A1-A17 on commercially available white polyester netting material (fiber titer 75 denier, 156 mesh, weight 28-32 g/m^2) without prior washing. The aqueous treatment baths were prepared by mixing the aqueous dispersions with emulsions of N-ethyl-2,2-dimethylpropionamide-2-(2,6-dichloro-α,α,α-trifluoro-p-tolyl)-hydrazone and N-ethyl-2,2-dichloro-1-methylcyclo-propanecarboxamide-2-(2,6-dichloro-α,α,α-tri-fluoro-p-tolyl)hydrazone, respectively, setting pH with buffer solutions and adding a fixative (if needed). The concentrations of the treatment baths were adjusted according to the liquor uptake possible (LU between 60 and 100%). The treatment baths were applied by using a padder-stenter equipment on a laboratory scale (Mathis AG, Switzerland). The netting material is fully immersed into the treatment bath and excess liquor is removed by passing it through cylinders which move in counter-direction. By choosing a defined distance between these cylinders (and thus a defined pressure) the liquor uptake can be controlled. The liquor uptake is measured by weighing an impregnated piece of netting and subtracting the weight of the dry, untreated netting and is given as % weight of liquor on weight of netting. […]

| SMILES | activity (knockdown, mortality) after washing of the nettings |
| --- | --- |
| CCN/C(=N\Nc1c(Cl)cc(C(F)(F)F)cc1Cl)C(C)(C)C [Ia-I, N-ethyl-2,2-dimethylpropionamide-2-(2,6-dichloro-α,α,α-trifluoro-p-tolyl)-hydrazone] | show an activity |
| CCN/C(=N\Nc1c(Cl)cc(C(F)(F)F)cc1Cl)C1(C)CC1(Cl)Cl (stereo not drawn) [Ia-II, N-Ethyl-2,2-dichloro-1-methylcyclo-propanecarboxamide-2-(2,6-dichloro-α,α,α-tri-fluoro-p-tolyl)hydrazone] | show an activity |
